Counter-ions that a name gives are not always drawn.
Assays:
[1] = molecular target: T1, cannabinoid receptor 1 (CB1) (Rattus norvegicus, UniProt P20272); experiment: Determination of affinity for cannabinoid receptor 1 (CB1) ([3H] WIN55,212-2 binding, rat cerebellum membranes); set-up: species or system Sprague Dawley rats; settings: method (c)
T1 construct: Tissue: rat cerebellum; from tissue; host or cells: rat cerebellum membranes
Excerpt: (c) Determination of Affinity for Cannabinoid Receptor 1 (CB1)
The method was developed on the basis of the publication of D'Ambra et al, J. Med. Chem. 35, 124-135 (1992), but at variance therewith the ligand stated below is used. The disclosure of this article is hereby incorporated by reference.
• Sprague Dawley rats weighing between 150-350 g • (breeder: Charles River Deutschland, 32699 Extertal, Germany) • Ligand: [^3H] WIN55, 212-2; Perkin Elmer, item. no. NET 1058 • Ligand cold: WIN 55, 212-2 mesylate; Tocris; item. no. 1038 • HEPES: Sigma, item no. H-3375 • BSA: Sigma, item no. A-2153 • GF/B filter mats (Brandel Inc., cat. no. FP 100, size 2¼″×12¼″) • Ready Protein scintillating material (item no. 586604, Beckmann, 85716 Unterschlei ? heim) • Tissue: rat cerebellum • Tissue & incubation buffer: 20 mM HEPES pH 7.0. • Filtration buffer: 20 mM HEPES pH 7.0 containing 0.5 mg of BSA/ml which prevents adsorption. • Filter mat softening buffer: 20 mM HEPES pH 7.0 containing 5 mg of BSA/ml. B. Preparation of Cerebellum:
20 ml of ice-cooled buffer are used per 1 g of brain tissue. The brain tissue is disrupted within 30 seconds in the cold buffer with ice cooling at a rotational speed of 6000 rpm using a homogeniser from Kinematica, model Polytron PT-3000 with PT-DA-3012/2 drive unit. The resultant homogenate is then diluted with cold buffer to a ratio of 100 ml/g of tissue. Centrifugation is then performed for 15 minutes at 49,000 g and 4° C. Once centrifugation is complete, the supernatants are decanted and the precipitates resuspended in fresh, cold buffer. Acceptable suspension of the pellets is obtained at only 1000 rpm in the homogeniser with ice cooling and a processing time of at most 60 seconds. This last centrifugation step is repeated twice more (in each case washed with 20 mM HEPES pH 7.0). The precipitated is then suspended with buffer in a ratio of 1:120 (weight/volume).
Incubation is performed for 90 minutes at room temperature, i.e. 25° C. The batches are then rapidly suction filtered with the assistance of the Brandel Cell Harvester (model M-24-R, Adi Hassel, 80809 Munich, Germany) through GF/B filter mats, which have previously been softened in HEPES buffer pH 7.0 containing 5 mg/ml of BSA, and rewashed with 20 ml of filtration buffer (ice-cooled). After transferring the filters into scintillation vials and adding a 10 ml portion of scintillation liquid (Ready Protein) to each and then leaving to stand for 15 hours, the samples are measured in the scintillation counter (Perkin Elmer, model Wallac 1409).

[2] = molecular target: T2, vanilloid receptor (VR1) (Rattus norvegicus, UniProt O35433); experiment: Functional investigations on vanilloid receptor (VR1): Ca2+ influx FLIPR assay in CHO K1 cells stably transfected with the VR1 gene; type: cell-based, rats; settings: for inhibition at 10 µM: CHO-K1, read-out: % Inhibition [1]; for % Activation [1]: method (b), substance 10 μM, relative to Ca2+ signal after 10 μM capsaicin, means from 4–5 measurements
T2 construct: expressed in transfected cells; host or cells: CHO K1 cells (ECACC)
T2 sequence (O35433 whole entry): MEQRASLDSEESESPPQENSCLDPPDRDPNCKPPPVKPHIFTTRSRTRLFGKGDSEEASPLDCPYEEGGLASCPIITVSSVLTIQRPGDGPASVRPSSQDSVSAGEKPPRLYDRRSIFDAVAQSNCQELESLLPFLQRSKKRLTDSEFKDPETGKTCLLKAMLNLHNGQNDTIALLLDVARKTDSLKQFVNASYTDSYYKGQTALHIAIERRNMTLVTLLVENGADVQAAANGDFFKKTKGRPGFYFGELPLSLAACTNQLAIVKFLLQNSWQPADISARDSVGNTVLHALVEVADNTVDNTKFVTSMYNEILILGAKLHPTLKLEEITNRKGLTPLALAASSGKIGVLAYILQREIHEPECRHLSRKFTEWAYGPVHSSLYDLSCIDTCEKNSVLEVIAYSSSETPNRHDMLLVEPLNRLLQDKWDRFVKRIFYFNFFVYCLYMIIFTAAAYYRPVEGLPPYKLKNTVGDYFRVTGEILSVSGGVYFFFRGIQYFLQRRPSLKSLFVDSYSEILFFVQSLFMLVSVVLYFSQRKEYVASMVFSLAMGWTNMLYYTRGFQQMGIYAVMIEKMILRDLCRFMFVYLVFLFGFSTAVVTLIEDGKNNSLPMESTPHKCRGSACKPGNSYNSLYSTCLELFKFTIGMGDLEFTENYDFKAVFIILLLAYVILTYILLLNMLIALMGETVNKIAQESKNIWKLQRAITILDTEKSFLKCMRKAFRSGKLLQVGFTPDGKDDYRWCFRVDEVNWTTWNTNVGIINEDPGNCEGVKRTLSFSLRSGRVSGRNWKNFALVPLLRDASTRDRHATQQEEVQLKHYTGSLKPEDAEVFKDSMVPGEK
Excerpt: (b) Functional Investigations on Vanilloid Receptor (VR1)
The agonistic or antagonistic action of the substances to be investigated on the vanilloid receptor (VR1) may be determined with the following assay. According to this assay, the influx of Ca^2+ through the channel is quantified with the assistance of a Ca^2+-sensitive dye (type Fluo4, Molecular Probes Europe BV, Leiden, Netherlands) in a Fluorescent Imaging Plate Reader (FLIPR, Molecular Devices, Sunnyvale, USA).
Chinese hamster ovary cells (CHO K1 cells, European Collection of Cell Cultures (ECACC), Great Britain) are stably transfected with the VR1 gene. For functional investigations, these cells are plated out onto poly-D-lysine-coated, black 96 well plates with a clear bottom (BD Biosciences, Heidelberg, Germany) at a density of 25,000 cells/well. The cells are incubated overnight at 37° C. and 5% CO2 in a culture medium (Ham's Nutrient Mixture F12, 10 vol. % FCS (foetal calf serum), 18 μg/mL L-proline). On the following day, the cells are incubated with Fluo4 (Fluo4 2 μM, Pluronic F127 0.01 vol. %, Molecular Probes in HBSS (Hank's buffered saline solution), Gibco Invitrogen GmbH, Karlsruhe, Germany) for 30 minutes at 37° C. The plates are then washed 3 times with HBSS buffer and, after a further 15 minutes' incubation at room temperature, used for Ca^2+ measurement in the FLIPR. Ca^2+-dependent fluorescence is here measured before and after addition of the substances to be investigated (wavelength λex=488 nm, λem=540 nm). Quantification proceeds by measuring the highest fluorescence intensity (FC, fluorescence counts) over time.
The FLIPR protocol comprises 2 additions of substance. […] The percentage inhibition in comparison with the maximum achievable inhibition with 10 μM capsazepine is calculated.

[3] = molecular target: T3, vanilloid receptor VR1 (capsaicin receptor) (Rattus norvegicus, UniProt O35433); experiment: Determination of affinity for vanilloid receptor VR1 ([3H] resiniferatoxin binding, rat spinal cord membranes); set-up: species or system Sprague Dawley rats; settings: method (a); 10 μM; read-out: % VR1 binding % inhibition at 10 μM [2]
T3 construct: isolated from the spinal cord of male Sprague Dawley rats (breeder: Charles River Deutschland, 32699 Extertal) and used for preparation of the membrane; from tissue; host or cells: rat spinal cord (cervical region and one third of the thoracic region) membranes
T3 sequence (O35433 whole entry): as above
Excerpt: This method was developed on the basis of the publication by Acs et al., J. Neurochem. 65, 301-308 (1995). The corresponding description is hereby introduced as a reference and is deemed to be part of the disclosure.
• Sprague Dawley rats weighing between 150-300 g • (breeder: Charles River Deutschland, 32699 Extertal, Germany) • HEPES (item no. H-3375, SIGMA) • NaCl (item no. 6400.1000; Merck) • KCl (item no.: 4936.1000; Merck) • HCl (item no.: 1.00317; Merck) • [^3H] resiniferatoxin ([^3H] RTX) (item no.: NET-1132, Perkin-Elmer) • Resiniferatoxin (RTX, cold) (item no.: 550-179-M001, Alexis) • D-Glucose (item no.: 1.08337.1000, Merck) • Sucrose (item no.: S-9378, Sigma) • α1-acid glycoprotein (item no.: G-3643, Sigma) • BSA (bovine serum albumin, item no.: A-2153, Sigma) • GF/B filter mats (Brandel Inc., cat. no. FP 100, size: 2¼″×12¼″)
Buffer: (Concentration values in brackets in each case in mM)
• HEPES (10); KCl (5); NaCl (5.8); CaCl (0.75); MgCl (2.0); D-glucose (12); • sucrose (137). The pH value is adjusted at room temperature using 20% strength HCl. B. Preparation of Membranes
The cervical region and one third of the following thoracic region is isolated from the spinal cord of male Sprague Dawley rats (breeder: Charles River Deutschland, 32699 Extertal) and used for preparation of the membrane. After the combined tissue is weighed, it is homogenized in ice-cooled buffer of the above-stated composition. 20 ml of buffer were used per 1 g of tissue (1:20 weight/volume). Homogenisation performed with a homogeniser from Kinematica, model Polytron PT-3000 with PT-DA-3012/2 drive unit. The spinal cord tissue is disrupted within 60 seconds in the cold buffer with ice cooling at a rotational speed of 6000 rpm. The material is then centrifuged for 10 minutes at 1000 g and +4° C. and the resultant precipitate discarded. The […] in the same volume of buffer of the above-stated composition. The material is then centrifuged for 40 minutes at 48,000 g and +4° C. and the supernatant discarded. The resultant precipitate is resuspended in 30 ml of buffer of the above-stated composition and used in this form in the vanilloid receptor (VR1) assay.
Incubation is performed in the water bath for one hour at 37° C. The samples are then placed in an ice bath for 15 minutes. In order to minimise nonspecific adsorption of the RTX, 100 μg of α1-acid glycoprotein (in 50 μl of buffer) are added to each incubation tube. The samples are then thoroughly mixed on a vortex shaker and left to stand for 10 minutes. The batches are then filtered with the assistance of the model M-24R “Brandel Cell Harvester” through a GF/B glass fiber filter mat which has been presoftened in tris buffer. The filter is then rinsed through 3 times with 4 ml portions of ice-cold HEPES buffer of the above-stated composition for each sample. The filters are transferred into scintillation counter vessels, each is combined with a 10 ml portion of “Ready Protein” scintillating material, and the vessels are closed with screw caps. The vessels are shaken on the vortex shaker and left to stand for at least 15 hours in the fume cupboard. The samples are then measured on the β-counter (model 1409 Wallac, Perkin Elmer, 63110 Rogau-Jügesheim, Germany).

T1 sequence (P20272 whole entry): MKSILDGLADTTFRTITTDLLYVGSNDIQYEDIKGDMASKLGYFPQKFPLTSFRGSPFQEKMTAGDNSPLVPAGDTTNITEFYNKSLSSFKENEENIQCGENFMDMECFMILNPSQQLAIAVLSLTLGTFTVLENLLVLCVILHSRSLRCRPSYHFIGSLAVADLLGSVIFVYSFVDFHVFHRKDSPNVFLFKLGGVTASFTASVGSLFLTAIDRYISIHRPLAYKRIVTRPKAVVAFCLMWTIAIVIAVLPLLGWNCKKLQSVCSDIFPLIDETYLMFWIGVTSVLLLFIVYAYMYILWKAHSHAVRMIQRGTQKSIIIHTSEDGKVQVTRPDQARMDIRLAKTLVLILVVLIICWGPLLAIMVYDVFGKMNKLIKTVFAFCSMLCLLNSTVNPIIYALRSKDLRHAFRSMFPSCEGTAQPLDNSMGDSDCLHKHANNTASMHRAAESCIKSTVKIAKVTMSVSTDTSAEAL

| Compound | inhibition at 10 µM [1] [%] | inhibition at 10 µM [2] [%] | % Activation [1] [2] [%] | inhibition at 10 µM [3] [%] |
| --- | --- | --- | --- | --- |
| Cc1ccn2c(NC(C)(C)CC(C)(C)C)c(-c3ccoc3)nc2c1.Cl [Example 5, (2-Furan-3-yl-7-methyl-imidazo[1,2-a]pyridin-3-yl)-(1,1,3,3-tetramethylbutyl)amine hydrochloride] | 32.7 | 80.7 | 32.4 | – |
| Cc1cc(C)n2c(NC(C)(C)CC(C)(C)C)c(-c3ccsc3)nc2c1 [Example 1, (5,7-Dimethyl-2-thiophen-3-yl-imidazo[1,2-a]pyridin-3-yl)-(1,1,3,3-tetramethylbutyl)-amine hydrochloride] | 43 | – | – | 42.5 |
| CC(C)(C)CC(C)(C)Nc1c(-c2ccoc2)nc2ccccn12 [Example 4, (2-Furan-3-yl-imidazo[1,2-a]pyridin-3-yl)-(1,1,3,3-tetramethylbutyl)amine hydrochloride] | 35 | 44.1 | – | – |
| CC(C)(C)CC(C)(C)Nc1c(-c2ccsc2)nc2ccccn12 [Example 2, (1,1,3,3-Tetramethylbutyl)-(2-thiophen-3-yl-imidazo-[1,2-a]pyridin-3-yl)amine hydrochloride] | 47 | 32.2 | – | 36 |
| Cc1ccn2c(NC(C)(C)CC(C)(C)C)c(-c3ccsc3)nc2c1.Cl [Example 3, (7-Methyl-2-thiophene-3-yl-imidazo[1,2-a]pyridin-3-yl)-(1,1,3,3-tetramethylbutyl)-amine hydrochloride] | 35.5 | 65 | 30.1 | – |

Reference: patent US7592351B2, “Substituted imidazo[1,2-a]pyridine compounds and pharmaceutical preparations containing substituted imidazo[1,2-a]pyridine compounds” (Gruenenthal GmbH, priority 2004, dated 2009)
